Columns and labels:
Experiment in all cases: biochemical
Parameters in all cases: KINOMEscan active-site competition binding panel (468 kinase assays), per cent of control at 1000 nM
Settings in all cases: KINOMEscan per cent of control (binding competition); read-out: Percent Control
BUB1 = BUB1 (Homo sapiens, UniProt O43683)
Excerpt: (§1) Figure S7 / Percent Control

AURKB = AURKB (Homo sapiens, UniProt Q96GD4)
Excerpt: as §1

PIM3 = PIM3 (Homo sapiens, UniProt Q86V86)
Excerpt: as §1

DDR2 = DDR2 (Homo sapiens, UniProt Q16832)
Excerpt: as §1

JNK1 = target: T1, JNK1 (Homo sapiens, UniProt P45983)
T1 construct: gene MAPK8
Excerpt: as §1

AXL = AXL (Homo sapiens, UniProt P30530)
Excerpt: as §1

MLCK = target: T2, MLCK (Homo sapiens, UniProt Q32MK0)
T2 construct: gene MYLK3
Excerpt: as §1

WEE2 = WEE2 (Homo sapiens, UniProt P0C1S8)
Excerpt: as §1

LCK = LCK (Homo sapiens, UniProt P06239)
Excerpt: as §1

FES = FES (Homo sapiens, UniProt P07332)
Excerpt: as §1

CTK = target: T3, CTK (Homo sapiens, UniProt P42679)
T3 construct: gene MATK
Excerpt: as §1

NEK5 = NEK5 (Homo sapiens, UniProt Q6P3R8)
Excerpt: as §1

[1] = target: T4, RSK3(Kin.Dom.1-N-terminal) (Homo sapiens, UniProt Q15349)
T4 construct: gene RPS6KA2; Kin.Dom.1-N-terminal
Excerpt: as §1

RIPK1 = RIPK1 (Homo sapiens, UniProt Q13546)
Excerpt: as §1

PIK4CB = target: T5, PIK4CB (Homo sapiens, UniProt Q9UBF8)
T5 construct: gene PI4KB
Excerpt: as §1

PAK4 = PAK4 (Homo sapiens, UniProt O96013)
Excerpt: as §1

TYRO3 = TYRO3 (Homo sapiens, UniProt Q06418)
Excerpt: as §1

SRMS = SRMS (Homo sapiens, UniProt Q9H3Y6)
Excerpt: as §1

EPHA5 = EPHA5 (Homo sapiens, UniProt P54756)
Excerpt: as §1

CDK11 = target: T6, CDK11 (Homo sapiens, UniProt Q9BWU1)
T6 construct: gene CDK19
Excerpt: as §1

CDK4 = CDK4 (Homo sapiens, UniProt P11802)
Excerpt: as §1

CSNK1G1 = CSNK1G1 (Homo sapiens, UniProt Q9HCP0)
Excerpt: as §1

PDGFRA = PDGFRA (Homo sapiens, UniProt P16234)
Excerpt: as §1

WNK2 = WNK2 (Homo sapiens, UniProt Q9Y3S1)
Excerpt: as §1

SGK3 = SGK3 (Homo sapiens, UniProt Q96BR1)
Excerpt: as §1

T4 sequence (Q15349 whole entry): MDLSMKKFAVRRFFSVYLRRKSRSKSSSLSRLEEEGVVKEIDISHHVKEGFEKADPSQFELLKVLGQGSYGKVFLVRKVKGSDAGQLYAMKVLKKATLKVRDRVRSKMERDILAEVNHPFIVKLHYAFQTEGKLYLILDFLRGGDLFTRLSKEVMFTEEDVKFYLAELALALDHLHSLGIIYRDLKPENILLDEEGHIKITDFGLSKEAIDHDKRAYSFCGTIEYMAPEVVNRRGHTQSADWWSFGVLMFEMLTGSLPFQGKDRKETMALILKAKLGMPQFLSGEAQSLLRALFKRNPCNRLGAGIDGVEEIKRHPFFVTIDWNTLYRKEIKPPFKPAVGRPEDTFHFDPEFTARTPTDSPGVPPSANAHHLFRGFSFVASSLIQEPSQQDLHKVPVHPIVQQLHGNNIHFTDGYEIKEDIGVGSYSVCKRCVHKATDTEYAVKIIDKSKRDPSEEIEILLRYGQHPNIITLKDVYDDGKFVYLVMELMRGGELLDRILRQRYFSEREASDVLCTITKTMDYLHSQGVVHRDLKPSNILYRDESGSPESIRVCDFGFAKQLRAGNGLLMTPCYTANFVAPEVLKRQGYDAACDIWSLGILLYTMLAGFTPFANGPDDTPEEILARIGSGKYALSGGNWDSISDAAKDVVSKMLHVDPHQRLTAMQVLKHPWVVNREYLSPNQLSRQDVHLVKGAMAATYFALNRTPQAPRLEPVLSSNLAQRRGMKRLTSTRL
FES, sequence (P07332 whole entry): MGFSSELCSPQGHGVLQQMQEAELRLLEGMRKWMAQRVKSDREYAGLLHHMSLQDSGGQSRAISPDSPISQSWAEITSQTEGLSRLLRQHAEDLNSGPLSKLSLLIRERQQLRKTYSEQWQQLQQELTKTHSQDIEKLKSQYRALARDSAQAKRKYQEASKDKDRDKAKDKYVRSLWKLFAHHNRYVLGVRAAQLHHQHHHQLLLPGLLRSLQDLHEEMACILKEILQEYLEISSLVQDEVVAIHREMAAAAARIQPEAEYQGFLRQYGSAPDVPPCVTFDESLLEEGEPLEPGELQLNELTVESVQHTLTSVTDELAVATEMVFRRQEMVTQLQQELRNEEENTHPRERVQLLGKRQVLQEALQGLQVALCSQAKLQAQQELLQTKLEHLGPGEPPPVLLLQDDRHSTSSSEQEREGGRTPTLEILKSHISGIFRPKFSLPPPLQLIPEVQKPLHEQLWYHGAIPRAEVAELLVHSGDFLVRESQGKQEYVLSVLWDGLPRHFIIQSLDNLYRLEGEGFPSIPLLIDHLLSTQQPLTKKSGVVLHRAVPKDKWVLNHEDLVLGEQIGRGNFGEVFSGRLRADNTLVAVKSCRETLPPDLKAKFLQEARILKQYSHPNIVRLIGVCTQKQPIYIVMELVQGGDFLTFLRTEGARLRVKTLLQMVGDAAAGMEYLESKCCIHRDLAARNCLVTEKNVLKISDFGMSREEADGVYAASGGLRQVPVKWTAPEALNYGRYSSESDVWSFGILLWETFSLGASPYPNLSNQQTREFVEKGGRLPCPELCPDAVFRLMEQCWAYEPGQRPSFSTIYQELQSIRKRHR
AXL, sequence (P30530 whole entry): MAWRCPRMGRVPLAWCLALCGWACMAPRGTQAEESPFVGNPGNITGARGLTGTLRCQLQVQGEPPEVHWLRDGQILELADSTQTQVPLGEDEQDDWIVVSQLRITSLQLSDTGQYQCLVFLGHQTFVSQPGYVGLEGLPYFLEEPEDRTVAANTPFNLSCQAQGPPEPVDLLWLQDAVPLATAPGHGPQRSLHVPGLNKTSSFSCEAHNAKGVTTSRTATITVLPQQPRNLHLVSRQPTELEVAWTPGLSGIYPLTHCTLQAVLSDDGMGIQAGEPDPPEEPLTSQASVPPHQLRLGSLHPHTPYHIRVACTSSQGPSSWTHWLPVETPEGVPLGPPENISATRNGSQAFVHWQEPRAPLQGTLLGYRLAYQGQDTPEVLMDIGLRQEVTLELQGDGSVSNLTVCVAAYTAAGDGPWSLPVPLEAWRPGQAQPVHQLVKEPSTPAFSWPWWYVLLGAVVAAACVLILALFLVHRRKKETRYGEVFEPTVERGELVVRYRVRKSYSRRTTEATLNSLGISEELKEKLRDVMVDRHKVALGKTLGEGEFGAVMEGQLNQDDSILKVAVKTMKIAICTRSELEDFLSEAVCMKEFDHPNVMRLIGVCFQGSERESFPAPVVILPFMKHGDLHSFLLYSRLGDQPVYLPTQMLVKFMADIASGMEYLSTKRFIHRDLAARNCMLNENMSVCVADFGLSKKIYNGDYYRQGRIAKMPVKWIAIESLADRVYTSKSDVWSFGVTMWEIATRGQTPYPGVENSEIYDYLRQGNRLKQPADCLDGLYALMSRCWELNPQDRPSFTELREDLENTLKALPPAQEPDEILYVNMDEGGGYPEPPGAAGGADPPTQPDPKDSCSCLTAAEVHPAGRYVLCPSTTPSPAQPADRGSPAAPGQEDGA
SGK3, sequence (Q96BR1 whole entry): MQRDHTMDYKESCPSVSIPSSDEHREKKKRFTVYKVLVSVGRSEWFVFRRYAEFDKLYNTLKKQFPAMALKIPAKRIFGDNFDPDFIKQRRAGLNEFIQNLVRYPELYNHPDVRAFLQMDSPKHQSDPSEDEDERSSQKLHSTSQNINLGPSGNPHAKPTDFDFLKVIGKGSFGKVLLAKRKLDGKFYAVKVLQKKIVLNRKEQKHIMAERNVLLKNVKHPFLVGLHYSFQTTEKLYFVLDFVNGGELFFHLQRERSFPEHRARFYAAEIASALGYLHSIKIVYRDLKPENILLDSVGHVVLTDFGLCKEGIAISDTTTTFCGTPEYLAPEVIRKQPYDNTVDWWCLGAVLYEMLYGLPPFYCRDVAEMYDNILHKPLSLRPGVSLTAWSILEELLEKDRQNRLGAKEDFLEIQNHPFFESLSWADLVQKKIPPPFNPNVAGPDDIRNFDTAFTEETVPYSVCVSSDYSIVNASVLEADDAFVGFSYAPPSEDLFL
LCK, sequence (P06239 whole entry): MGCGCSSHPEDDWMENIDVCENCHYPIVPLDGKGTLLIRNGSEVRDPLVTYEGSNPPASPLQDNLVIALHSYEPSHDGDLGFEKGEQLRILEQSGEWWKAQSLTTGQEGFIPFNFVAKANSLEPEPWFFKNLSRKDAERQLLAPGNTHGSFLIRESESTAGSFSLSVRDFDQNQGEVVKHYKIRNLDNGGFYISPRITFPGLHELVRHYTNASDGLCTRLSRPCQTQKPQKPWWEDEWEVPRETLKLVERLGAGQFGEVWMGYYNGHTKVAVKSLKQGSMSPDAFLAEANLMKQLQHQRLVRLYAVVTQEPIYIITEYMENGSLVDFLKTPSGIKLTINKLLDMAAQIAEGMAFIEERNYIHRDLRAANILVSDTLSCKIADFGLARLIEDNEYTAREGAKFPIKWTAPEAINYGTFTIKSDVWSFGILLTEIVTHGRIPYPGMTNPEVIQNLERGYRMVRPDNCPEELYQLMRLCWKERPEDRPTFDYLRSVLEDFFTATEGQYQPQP
T5 sequence (Q9UBF8 whole entry): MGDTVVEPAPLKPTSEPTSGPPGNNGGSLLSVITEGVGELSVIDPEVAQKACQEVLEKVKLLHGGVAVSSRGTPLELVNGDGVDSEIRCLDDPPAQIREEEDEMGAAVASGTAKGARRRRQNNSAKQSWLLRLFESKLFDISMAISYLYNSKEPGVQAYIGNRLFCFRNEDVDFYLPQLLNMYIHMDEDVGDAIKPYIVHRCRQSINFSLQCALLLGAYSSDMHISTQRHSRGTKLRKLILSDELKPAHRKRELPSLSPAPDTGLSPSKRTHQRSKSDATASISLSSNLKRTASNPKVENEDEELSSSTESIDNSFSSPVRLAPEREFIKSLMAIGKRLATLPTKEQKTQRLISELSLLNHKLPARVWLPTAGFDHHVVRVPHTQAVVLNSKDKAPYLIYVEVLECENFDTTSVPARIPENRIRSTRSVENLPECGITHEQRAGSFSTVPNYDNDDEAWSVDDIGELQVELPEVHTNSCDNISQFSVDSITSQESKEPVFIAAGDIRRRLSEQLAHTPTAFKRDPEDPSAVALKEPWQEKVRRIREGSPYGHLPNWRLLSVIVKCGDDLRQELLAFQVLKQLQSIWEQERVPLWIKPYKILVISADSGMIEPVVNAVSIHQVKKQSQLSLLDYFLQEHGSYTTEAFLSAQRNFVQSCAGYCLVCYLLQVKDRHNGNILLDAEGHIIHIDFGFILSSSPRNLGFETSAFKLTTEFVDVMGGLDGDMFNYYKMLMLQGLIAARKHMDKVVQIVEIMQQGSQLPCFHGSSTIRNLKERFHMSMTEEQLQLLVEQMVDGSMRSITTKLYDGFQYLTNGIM
RIPK1, sequence (Q13546 whole entry): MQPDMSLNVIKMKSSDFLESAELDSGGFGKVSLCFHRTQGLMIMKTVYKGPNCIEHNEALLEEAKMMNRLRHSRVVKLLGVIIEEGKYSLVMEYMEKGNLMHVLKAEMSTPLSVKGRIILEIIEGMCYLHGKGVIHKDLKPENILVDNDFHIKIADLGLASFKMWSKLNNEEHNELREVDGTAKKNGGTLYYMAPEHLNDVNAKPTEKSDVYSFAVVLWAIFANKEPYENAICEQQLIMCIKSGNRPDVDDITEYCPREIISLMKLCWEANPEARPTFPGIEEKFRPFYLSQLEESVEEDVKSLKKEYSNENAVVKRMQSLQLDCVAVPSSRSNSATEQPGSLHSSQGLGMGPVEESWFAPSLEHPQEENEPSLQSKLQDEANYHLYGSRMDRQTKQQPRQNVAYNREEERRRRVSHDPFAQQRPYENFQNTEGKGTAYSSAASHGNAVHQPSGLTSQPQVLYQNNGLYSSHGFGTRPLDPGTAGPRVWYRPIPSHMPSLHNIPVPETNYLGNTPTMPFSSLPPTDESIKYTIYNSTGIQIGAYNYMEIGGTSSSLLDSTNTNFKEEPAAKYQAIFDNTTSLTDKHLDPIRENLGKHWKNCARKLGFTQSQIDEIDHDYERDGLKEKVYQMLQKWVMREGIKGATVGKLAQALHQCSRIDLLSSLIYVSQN

Cn1c(=O)[nH]c2ccc(-c3cccc(C(=O)NC4CCn5ccnc5C4)c3)cc21 (stereo not shown) [Z36-MP5]
remaining binding at 1 µM (BUB1): 73%
remaining binding at 1 µM (AURKB): 84%
remaining binding at 1 µM (PIM3): 85%
remaining binding at 1 µM (DDR2): 66%
remaining binding at 1 µM (JNK1): 61%
remaining binding at 1 µM (AXL): 94%
remaining binding at 1 µM (MLCK): 91%
remaining binding at 1 µM (WEE2): 96%
remaining binding at 1 µM (LCK): 49%
remaining binding at 1 µM (FES): 73%
remaining binding at 1 µM (CTK): 61%
remaining binding at 1 µM (NEK5): 90%
remaining binding at 1 µM [1]: 93%
remaining binding at 1 µM (RIPK1): 87%
remaining binding at 1 µM (PIK4CB): 100%
remaining binding at 1 µM (PAK4): 41%
remaining binding at 1 µM (TYRO3): 100%
remaining binding at 1 µM (SRMS): 89%
remaining binding at 1 µM (EPHA5): 86%
remaining binding at 1 µM (CDK11): 82%
remaining binding at 1 µM (CDK4): 62%
remaining binding at 1 µM (CSNK1G1): 63%
remaining binding at 1 µM (PDGFRA): 75%
remaining binding at 1 µM (WNK2): 63%
remaining binding at 1 µM (SGK3): 60%
